# Measured values as given in ChEMBL document CHEMBL4304747, “Structural Tailoring of a Novel Fluorescent IRE-1 RNase Inhibitor to Precisely Control Its Activity” (J Med Chem, 2019).
# The source made the active and inactive calls. The calls are words filed in the database; no cut-off is given here.
# Key:
# [1] = target: Serine/threonine-protein kinase/endoribonuclease IRE1 (Mus musculus) (UniProt Q9EQY0); test: Binding affinity to IRE1 in mouse 5TGM1 cells assessed as inhibition of IRE1/XBP1 pathway activation by measuring reduction in XBP1s expression at 10 uM measured up to 24 hrs by immunoblot analysis; format: cell-based
# [2] = target: Serine/threonine-protein kinase/endoribonuclease IRE1 (Mus musculus) (UniProt Q9EQY0); test: Binding affinity to IRE1 in mouse 5TGM1 cells assessed as inhibition of IRE1/XBP1 pathway activation by measuring reduction in XBP1s expression at 10 uM measured after 3 days by immunoblot analysis; format: cell-based
# 5TGM1 [3] = test: Cytotoxicity against mouse 5TGM1 cells assessed as growth inhibition at 20 uM measured after 4 days by XTT assay; format: functional, cell-based
# [4] = target: Serine/threonine-protein kinase/endoribonuclease IRE1 (Mus musculus) (UniProt Q9EQY0); test: Binding affinity to IRE1 in mouse 5TGM1 cells assessed as inhibition of IRE1/XBP1 pathway activation by measuring reduction in XBP1s expression at 5 uM measured after 24 hrs by immunoblot analysis; format: cell-based
# [5] = Stability in PBS/DMSO assessed as compound decomposition by measuring decrease in fluorescence intensity at 10 uM measured after 48 hrs; format: physicochemical; conditions: read-out: Drug degradation
# [6] = Stability in PBS/DMSO assessed as change in fluorescence intensity at 10 uM at 460 nm; format: physicochemical; conditions: buffer
# [7] = Stability in PBS/DMSO assessed as increase in fluorescence intensity at 10 uM; format: physicochemical; conditions: buffer
# [8] = target: Serine/threonine-protein kinase/endoribonuclease IRE1 (Mus musculus) (UniProt Q9EQY0); test: Binding affinity to IRE1 in mouse 5TGM1 cells assessed as inhibition of IRE1/XBP1 pathway activation by measuring reduction in XBP1s expression at 10 uM measured after 2 days by immunoblot analysis; format: cell-based
# [9] = Stability in PBS/DMSO assessed as increase in fluorescence intensity at 10 uM at 365 nm light illumination by fluorescence imaging analysis
# [10] = Drug metabolism in RPMI media assessed as hydrolysis at measured up to 25 hrs by HPLC analysis
# [11] = target: Serine/threonine-protein kinase/endoribonuclease IRE1 (Mus musculus) (UniProt Q9EQY0); test: Binding affinity to IRE1 in mouse 5TGM1 cells assessed as inhibition of IRE1/XBP1 pathway activation by measuring reduction in XBP1s expression at 2.5 uM measured up to 4 hrs by immunoblot analysis; format: cell-based
# [12] = target: Serine/threonine-protein kinase/endoribonuclease IRE1 (Mus musculus) (UniProt Q9EQY0); test: Binding affinity to IRE1 in LPS-stimulated mouse primary B cells assessed as inhibition of IRE1/XBP1 pathway activation by measuring reduction in XBP1s expression at 2.5 to 5 uM measured after 2 hrs by immunoblot analysis
# Homo sapiens [13] = species on record: Homo sapiens; test: Cytotoxicity against human WaC3 cells assessed as growth inhibition at 20 uM measured after 3 days by XTT assay; format: functional, cell-based
# 5TGM1 [14] = test: Cytotoxicity against mouse 5TGM1 cells assessed as growth inhibition at 20 uM measured after 3 days by XTT assay; format: functional, cell-based
# Homo sapiens [15] = species on record: Homo sapiens; test: Cytotoxicity against human WaC3 cells assessed as growth inhibition at 20 uM measured after 1 day by XTT assay; format: functional, cell-based
# [16] = Stability in PBS/DMSO assessed as change in fluorescence intensity at 10 uM; format: physicochemical; conditions: buffer
# [17] = Prodrug conversion in DMSO/PBS solution assessed as DF07 formation by measuring increase in fluorescence intensity at 10 uM irradiated with 1 mW/cm2 UV light relative to control; format: ADME
# [18] = Prodrug conversion in cytoplasm of mouse 5TGM1 cells assessed as DF07 formation by measuring increase in fluorescence intensity at 10 uM treated for 4 hrs measured 10 secs post irradiation with 50 mW DAPI filtered diode laser by confocal microscopic analysis; format: ADME, subcellular; conditions: 5tgm1, 4 h
# [19] = target: Serine/threonine-protein kinase/endoribonuclease IRE1 (Mus musculus) (UniProt Q9EQY0); test: Binding affinity to IRE1 in mouse 5TGM1 cells assessed as inhibition of IRE1/XBP1 pathway activation by measuring reduction in XBP1s expression at 10 uM irradiated with 1 mW/cm2 UV light for up to 10 mins and measured after 4 hrs by immunoblot analysis; format: cell-based
# [20] = target: Serine/threonine-protein kinase/endoribonuclease IRE1 (Mus musculus) (UniProt Q9EQY0); test: Binding affinity to IRE1 in mouse 5TGM1 cells assessed as inhibition of IRE1/XBP1 pathway activation by measuring reduction in XBP1s expression at 10 uM measured after 4 hrs by immunoblot analysis; format: cell-based
# [21] = Stability in pH 7.4 PBS/DMSO measured after 48 hrs by HPLC analysis; format: physicochemical; conditions: buffer, pH 7.4, 48 h
# [22] = Stability in RPMI media measured after 96 hrs by HPLC analysis; format: physicochemical
# [23] = target: Serine/threonine-protein kinase/endoribonuclease IRE1 (Mus musculus) (UniProt Q9EQY0); test: Binding affinity to IRE1 in mouse 5TGM1 cells assessed as inhibition of IRE1/XBP1 pathway activation by measuring reduction in XBP1s expression at 10 uM preincubated for 4 hrs followed by three times compound washout and subsequent 1 mW/cm2 UV irradiation for 10 mins measured after 8 hrs by immunoblot analysis; format: cell-based
# [24] = Drug metabolism in pH 7.4 PBS/DMSO assessed as 1,3-dioxane acetal hydrolysis measured after 48 hrs by HPLC analysis
# [25] = Drug metabolism in RPMI media assessed as 1,3-dioxane acetal hydrolysis measured after 96 hrs by HPLC analysis
# Chain of Serine/threonine-protein kinase/endoribonuclease IRE1 (Mus musculus) (Q9EQY0 whole entry): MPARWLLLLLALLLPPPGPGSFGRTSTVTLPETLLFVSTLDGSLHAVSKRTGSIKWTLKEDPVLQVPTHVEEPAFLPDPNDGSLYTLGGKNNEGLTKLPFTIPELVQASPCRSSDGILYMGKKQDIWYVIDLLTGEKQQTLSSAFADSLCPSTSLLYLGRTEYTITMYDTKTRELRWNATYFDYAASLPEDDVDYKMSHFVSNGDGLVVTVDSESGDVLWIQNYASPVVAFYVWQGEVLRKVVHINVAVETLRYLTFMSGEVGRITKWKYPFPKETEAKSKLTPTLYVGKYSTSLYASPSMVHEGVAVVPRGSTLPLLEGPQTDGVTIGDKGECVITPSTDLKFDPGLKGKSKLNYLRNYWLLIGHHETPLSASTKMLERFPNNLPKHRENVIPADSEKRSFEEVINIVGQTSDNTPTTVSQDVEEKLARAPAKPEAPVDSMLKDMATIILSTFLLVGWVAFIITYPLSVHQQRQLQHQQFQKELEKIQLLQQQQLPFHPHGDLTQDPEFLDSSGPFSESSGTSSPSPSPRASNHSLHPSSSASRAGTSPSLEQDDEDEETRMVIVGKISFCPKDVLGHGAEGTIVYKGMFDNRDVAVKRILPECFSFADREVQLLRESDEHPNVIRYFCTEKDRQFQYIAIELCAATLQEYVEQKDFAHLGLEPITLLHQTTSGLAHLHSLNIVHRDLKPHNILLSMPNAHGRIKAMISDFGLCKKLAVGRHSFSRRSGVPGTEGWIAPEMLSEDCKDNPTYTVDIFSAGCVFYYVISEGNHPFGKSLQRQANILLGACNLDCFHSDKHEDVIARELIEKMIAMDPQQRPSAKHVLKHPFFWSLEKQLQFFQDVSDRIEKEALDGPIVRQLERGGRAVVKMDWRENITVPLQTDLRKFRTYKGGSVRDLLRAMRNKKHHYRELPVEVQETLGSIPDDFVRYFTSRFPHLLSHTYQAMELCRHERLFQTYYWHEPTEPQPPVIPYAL
compound,measurement,setting,value
C=CCOC(=O)N1CCc2c(c(=O)oc3c(C=O)c(O)ccc23)C1,inhibition,[1],Active
O=c1oc2c(C3OCCCO3)c(O)ccc2c2c1CNCC2,inhibition,[2],Active
same,growth inhibition (GI),5TGM1 [3],Active
same,inhibition,[4],Active
same,"degraded at 48 h, 10 µM",[5],5.1%
COc1cc2c3c(c(=O)oc2c(C2OCCCO2)c1O)CNCC3,inhibition,[2],Active
same,Stability,[6],Stable
CN1CCc2c(c(=O)oc3c(/C=N/N4CCCCC4)c(O)ccc23)C1,Stability,[7],Unstable
O=Cc1c(O)ccc2c3c(c(=O)oc12)CNCC3,inhibition,[1],Active
same,growth inhibition (GI),5TGM1 [3],Active
same,inhibition,[8],inactive
same,Stability,[7],Stable
same,Stability,[9],Stable
O=c1oc2c(/C=N/N3CCCCC3)c(O)ccc2c2c1CNCC2,Stability,[7],Unstable
CC(=O)N/N=C/c1c(O)ccc2c3c(c(=O)oc12)CN(C)CC3,Drug metabolism,[10],Metabolite detected
same,inhibition,[2],Active
same,inhibition,[11],Active
same,inhibition,[12],Active
same,growth inhibition (GI),Homo sapiens [13],Active
same,Stability,[7],Unstable
CN1CCc2c(c(=O)oc3c(C=O)c(O)ccc23)C1,inhibition,[1],Active
same,growth inhibition (GI),5TGM1 [3],Active
same,inhibition,[8],inactive
same,growth inhibition (GI),5TGM1 [14],Active
same,Stability,[7],Stable
same,Stability,[9],Stable
COc1cc2c3c(c(=O)oc2c(/C=N/NC(C)=O)c1O)CN(C)CC3,inhibition,[2],Active
same,inhibition,[11],Active
same,growth inhibition (GI),Homo sapiens [13],inactive
same,growth inhibition (GI),Homo sapiens [15],Active
same,Stability,[16],Unstable
CN1CCc2c(c(=O)oc3c(C4OCCCO4)c(O)ccc23)C1,Drug metabolism,[10],Metabolite detected
same,inhibition,[2],Active
same,growth inhibition (GI),5TGM1 [3],Active
same,inhibition,[11],Active
same,growth inhibition (GI),5TGM1 [14],Active
same,growth inhibition (GI),Homo sapiens [13],Active
same,Stability,[7],Stable
COc1cc2c3c(c(=O)oc2c(C2OCCCO2)c1OC(C)c1ccc(C(=O)OCC[Si](C)(C)C)cc1[N+](=O)[O-])CN(C)CC3 (stereo not given),fold change (FC),[17],75
same,Drug metabolism,[18],Metabolite_Detected
same,inhibition,[19],Active
same,inhibition,[20],inactive
same,Stability,[21],Stable
same,Stability,[22],Stable
same,inhibition,[23],Active
CC1(C)COC(c2c(O)ccc3c4c(c(=O)oc23)CNCC4)OC1,inhibition,[4],Active
same,"degraded at 48 h, 10 µM",[5],60%
same,Stability,[7],Stable
COc1cc2c3c(c(=O)oc2c(C2OCCCO2)c1O)CN(C)CC3,inhibition,[2],Active
same,growth inhibition (GI),5TGM1 [14],Active
same,growth inhibition (GI),Homo sapiens [13],Active
same,Stability,[6],Stable
same,Drug metabolism,[24],70%
same,Drug metabolism,[25],70%
same,inhibition,[23],inactive
